Reference: US9102648B1, “Bioavailable diacylhydrazine ligands for modulating the expression of exogenous genes via an ecdysone receptor complex” (Intrexon Corporation, priority 2003, dated 2015)
pEC50: −log10 of the molar value. Read-outs that look alike come from different tables or passages of the source.

Tests used:
[1] = biological target: T1, Bombyx mori EcR (VP16 fusion, CVBE switch construct) (Bombyx mori, UniProt P49881); test: Z3 Assay (HEK-293 cells with CVBE and 6XEcRE LacZ, β-galactosidase reporter); conditions: for Fold Induction, Z3 Assay, 33 uM: 33 uM ligand; for Fold Induction, Z3 Assay, 33 uM / Fold Induction, Z3 Assay, 3.3 uM: ligand treated / DMSO treated cells; for fold induction at 3.3 µM: HEK293, read-out: Fold Induction, Z3 Assay, 3.3 uM; for fold induction at 33 µM: HEK293, read-out: Fold Induction, Z3 Assay, 33 uM; for Z3 assay Rel Max FI: maximum fold induction at any concentration relative to that of GS-E ligand; for Fold Induction, Z3 Assay, 3.3 uM: 3.3 uM ligand
T1 sequence (P49881 86-606): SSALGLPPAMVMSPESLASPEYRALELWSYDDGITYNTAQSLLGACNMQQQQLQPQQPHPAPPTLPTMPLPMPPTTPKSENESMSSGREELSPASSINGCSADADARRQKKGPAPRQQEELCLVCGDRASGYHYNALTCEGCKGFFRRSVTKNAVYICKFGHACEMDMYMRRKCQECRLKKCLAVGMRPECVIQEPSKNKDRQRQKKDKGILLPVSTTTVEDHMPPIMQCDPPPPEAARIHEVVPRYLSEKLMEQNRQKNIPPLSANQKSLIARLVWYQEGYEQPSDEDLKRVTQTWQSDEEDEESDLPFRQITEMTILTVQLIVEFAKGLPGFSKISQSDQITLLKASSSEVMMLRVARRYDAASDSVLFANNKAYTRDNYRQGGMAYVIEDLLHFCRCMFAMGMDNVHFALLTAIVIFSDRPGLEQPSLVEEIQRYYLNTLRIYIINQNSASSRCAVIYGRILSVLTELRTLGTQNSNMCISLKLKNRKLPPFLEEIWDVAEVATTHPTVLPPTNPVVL
T1 sequence (P19793 1-462 partner): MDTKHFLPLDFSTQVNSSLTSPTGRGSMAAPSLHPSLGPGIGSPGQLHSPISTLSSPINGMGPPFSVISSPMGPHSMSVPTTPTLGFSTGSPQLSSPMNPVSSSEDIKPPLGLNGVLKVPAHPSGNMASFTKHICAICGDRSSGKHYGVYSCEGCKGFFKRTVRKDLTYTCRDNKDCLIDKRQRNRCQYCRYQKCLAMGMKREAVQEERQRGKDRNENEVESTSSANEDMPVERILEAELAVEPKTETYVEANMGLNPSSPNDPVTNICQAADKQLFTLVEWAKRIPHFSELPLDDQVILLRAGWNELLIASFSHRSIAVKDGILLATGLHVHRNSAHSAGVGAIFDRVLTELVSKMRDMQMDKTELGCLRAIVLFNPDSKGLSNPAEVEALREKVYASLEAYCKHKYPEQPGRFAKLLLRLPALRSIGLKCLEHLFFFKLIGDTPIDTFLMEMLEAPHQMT

[2] = biological target: GAL4 DBD-CfEcR(DEF)/VP16AD-MmRXRE (Choristoneura fumiferana, UniProt O77240); test: 13B3 Assay (CHO stable cell line, luciferase reporter); conditions: for Fold Induction, 13B3 Assay, 33 uM: 33 uM ligand; for Fold Induction, 13B3 Assay, 33 uM / Fold Induction, 13B3 Assay, 3.3 uM: RLU ligand treated / RLU DMSO treated cells; for 13B3 assay Rel Max FI: maximum fold induction at any concentration relative to that of GS-E ligand, CHO 13B3 cells; for fold induction at 33 µM: read-out: Fold Induction, 13B3 Assay, 33 uM; for Fold Induction, 13B3 Assay, 3.3 uM: 3.3 uM ligand; for fold induction at 3.3 µM: read-out: Fold Induction, 13B3 Assay, 3.3 uM
Summary of the method: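 Ligands dosed at 8 levels from 33 to 0.01 μM (DMSO stocks diluted 300-fold) onto the 13B3 CHO line carrying GAL4-DBD/CfEcR-DEF, VP16/MmRXR-DE and a GAL4-responsive luciferase gene.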

[3] = read-out: Z3 assay EC50, HEK-293 Z3 cells, β-galactosidase reporter, average of two wells
[4] = read-out: 13B3 EC50, CHO 13B3 stable cell line, luciferase reporter, 48 h, average of two wells

| Compound | Fold Induction, Z3 Assay, 33 uM ([1]; average of two wells) | Fold Induction, 13B3 Assay, 33 uM ([2]; average of two wells) | pEC50 [1] | fold induction at 3.3 µM [1] | fold induction at 33 µM [1] | Z3 assay Rel Max FI ([1]; HEK-293 Z3 cells) | pEC50 [2] | 13B3 assay Rel Max FI [2] | fold induction at 33 µM [2] | Fold Induction, Z3 Assay, 3.3 uM ([1]; average of two wells) | pEC50 [1, 3] | Fold Induction, 13B3 Assay, 3.3 uM ([2]; average of two wells) | pEC50 [2, 4] | fold induction at 3.3 µM [2] |
| --- | --- | --- | --- | --- | --- | --- | --- | --- | --- | --- | --- | --- | --- | --- |
| CCc1c(OC)cccc1C(=O)NN(C(=O)c1cc(C)cc(C)c1)C(C)(C)C=NNC(=O)C(N)=O [RG-115597, oxamic carbazide of 2-ethyl-3-methoxy-benzoic acid N′-(3,5-dimethyl-benzoyl)-N′-(1,1-dimethyl-2-oxo-ethyl)-hydrazide] | 942 | 4667 |  |  |  |  |  |  |  |  |  |  |  |  |
| CCc1c(OC)cccc1C(=O)NN(C(=O)c1cc(C)cc(C)c1)C(C)(C)C(=O)O [RG-115044, 2-[N-(3,5-Dimethyl-benzoyl)-N′-(2-ethyl-3-methoxy-benzoyl)-hydrazino]-2-methyl-propionic acid] |  |  | < 4.30 | 1 | 7 | 1.08 | < 4.30 | 0.87 | 1 |  |  |  |  |  |
| CCc1c(OC)cccc1C(=O)NN(C(=O)c1ccc(Cl)cc1[N+](=O)[O-])C(C)(C)C [RG-115647] | 510 | 98 |  |  |  | 0.923 |  | 0.662 |  | 96 | 6.84 | 2169 | 6.08 |  |
| CCc1c(OC)cccc1C(=O)NN(C(=O)c1cc(C)cc(C)c1)C(C)(C)CO [RG-115143] | 1045 | 2032 |  |  |  | 0.844 |  | 0.651 |  | 111 | 5.13 | 1 | < 4.30 |  |
| CCc1c(OC)cccc1C(=O)NN(C(=O)c1cc(Cl)ccc1OC)C(C)(C)C [RG-115253] | 832 | 471 |  |  |  |  |  |  |  |  | 6.57 |  |  |  |
| COc1cccc(C(=O)NN(C(=O)c2cc(C)cc(C)c2)C(C)(C)C)c1[N+](=O)[O-] [RG-100568] | 1193 | 4122 |  |  |  | 0.855 |  | 1.035 |  | 276 | 5.48 | 2 | 4.35 |  |
| Cc1c(C(=O)NN(C(=O)c2ccc(F)c(F)c2)C(C)(C)C)ccc2c1CCCO2 [RG-115416] | 1116 | 2737 |  |  |  | 1.869 |  | 12.104 |  | 164 | 7.04 | 3618 | 6.03 |  |
| CCc1c(OC)cccc1C(=O)NN(C(=O)c1cc(C)cc(C)c1)C(C)(C)C=NCCO [RG-115511] | 570 | 98 |  |  |  | 0.66 |  | 0.07 |  | 10 | 4.41 | 1 | < 4.30 |  |
| CCc1c(C(=O)NN(C(=O)c2ccc(Cl)cc2OC)C(C)(C)C)ccc2c1OCO2 [RG-115085] | 627 | 236 |  |  |  |  |  |  |  |  | 6.71 |  |  |  |
| CCc1c(C(=O)NN(C(=O)c2ccccc2)C(C)(C)C)ccc2c1OCOC2 [RG-115046] | 754 | 1076 |  |  |  |  |  |  |  |  | 5.45 |  |  |  |
| COc1cccc(C(=O)NN(C(=O)c2cc(C)cc(C)c2)C(C)(C)C)c1N [RG-115378] | 1464 | 2424 |  |  |  | 0.947 |  | 0.655 |  | 488 | 6.49 | 1778 | 5.75 |  |
| CCc1c(OC)cccc1C(=O)NN(C(=O)c1c(F)cccc1F)C(C)(C)C [RG-115033] | 388 | 12 |  |  |  | 0.575 |  | 0.643 |  | 24 | 4.79 | 386 | 6.00 |  |
| CC(=O)c1ccc(C(=O)NN(C(=O)c2cc(C(=O)O)cc(C(=O)O)c2)C(C)(C)C)cc1 [RG-100150] | 1 | 1 |  |  |  |  |  |  |  |  |  |  |  |  |
| CCc1c(C(=O)NN(C(=O)c2cc(OC)c(C)c(OC)c2)C(C)(C)C)ccc2c1OCCO2 [RG-115130] | 930 | 511 |  |  |  |  |  |  |  | 412 | 7.44 | 987 | 6.29 |  |
| CC(C)(C)N(NC(=O)c1ccc(Cl)cc1)C(=O)c1ccccc1 [RG-100864] |  |  | 5.65 | 63 | 840 |  | 5.94 |  | 187 |  |  |  |  | 318 |
| Cc1c(C(=O)NN(C(=O)c2cc(F)cc(F)c2)C(C)(C)C)ccc2c1CCCO2 [RG-115207] | 508 | 7959 |  |  |  | 0.923 |  | 0.707 |  | 354 | 6.59 | 7260 | 6.21 |  |
| CCc1c(OC)cccc1C(=O)NN(C(=O)c1cc(C)cc(C)c1)C(C)(C)C [RG-102240, N-(3-methoxy-2-ethylbenzoyl)-N′-(3,5-dimethylbenzoyl)-N′-tert-butylhydrazine] |  |  | 6.54 |  |  | 1 | 6.30 | 1 |  |  |  |  |  |  |
| Cc1c(C(=O)NN(C(=O)c2cc(F)c(F)c(F)c2)C(C)(C)C)ccc2c1CCCO2 [RG-115575, 3,4,5-Trifluoro-benzoic acid N-tert-butyl-N′-(5-methyl-chroman-6-carbonyl)-hydrazide] |  |  | 6.99 | 282 | 785 | 0.886 | 6.57 | 0.641 | 865 |  |  |  |  | 3080 |
| CCc1c(OC)cccc1C(=O)NN(C(=O)c1ccc2c(c1)OCO2)C(C)(C)C [RG-100699] | 415 | 2296 |  |  |  |  |  |  |  |  | 5.68 |  |  |  |
